Results reported in PubChem BioAssay (NCI).
Where “and” joins values, the source holds several entries; their conditions need not be identical. Identical values can stand only once.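 Cultured in 96-well plates, cells were exposed to test compound for 48 hours across five concentrations. GI50 is the concentration that inhibits growth by half. TGI denotes the concentration required for complete inhibition of growth.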

Columns and labels:
Test in all cases: NCI tumour cell line growth inhibition, 48 h
HOP-92 NSCLC = tested on: HOP-92 NSCLC
UACC-257 melanoma = tested on: UACC-257 melanoma
MDA-MB-231 breast = tested on: MDA-MB-231 breast
SF-295 CNS = tested on: SF-295 CNS
HS 578T breast = tested on: HS 578T breast
BT-549 breast = tested on: BT-549 breast
CAKI-1 renal = tested on: CAKI-1 renal
NCI-H460 lung = tested on: NCI-H460 lung
A549 NSCLC = tested on: A549 NSCLC
SW-620 colon = tested on: SW-620 colon

Cc1nc2sccn2c1-c1nc2sccn2c1/C=C1/C(=O)Nc2ccccc21
GI50 (HOP-92 NSCLC): 1.4 µM
TGI (HOP-92 NSCLC): 10.2 µM
GI50 (UACC-257 melanoma): 16.3 µM
TGI (UACC-257 melanoma): 91.9 µM
GI50 (MDA-MB-231 breast): 4.85 µM
TGI (MDA-MB-231 breast): 23.9 µM
GI50 (SF-295 CNS): 2.12 µM
TGI (SF-295 CNS): 8.09 µM
GI50 (HS 578T breast): 1.96 µM
TGI (HS 578T breast): 9.75 µM
GI50 (BT-549 breast): 1.85 µM
TGI (BT-549 breast): 7.27 µM
GI50 (CAKI-1 renal): 5.29 µM
TGI (CAKI-1 renal): 69.4 µM
GI50 (NCI-H460 lung): 3.09 µM
TGI (NCI-H460 lung): 13.5 µM
GI50 (A549 NSCLC): 3.95 µM
TGI (A549 NSCLC): > 100 µM
GI50 (SW-620 colon): 2.32 µM
TGI (SW-620 colon): 7.61 µM

CCCCNCCCNCCCNC(=O)c1csc(-c2csc(CCNC(=O)C(NC(=O)C(C)C(O)C(C)NC(=O)C(NC(=O)c3nc(C(CC(N)=O)NCC(N)C(N)=O)nc(N)c3C)C(OC3OC(CO)C(O)C(O)C3OC3OC(CO)C(O)C(OC(N)=O)C3O)c3cnc[nH]3)C(C)O)n2)n1 (configuration not stated)
TGI (HOP-92 NSCLC): 1.79 µM
GI50 (UACC-257 melanoma): 0.106 µM
TGI (MDA-MB-231 breast): 50 µM
TGI (SF-295 CNS): 1.76 µM
TGI (HS 578T breast): 50 µM
TGI (BT-549 breast): > 50 µM
TGI (CAKI-1 renal): 50 µM and 17 µM
GI50 (NCI-H460 lung): 0.0396 µM
TGI (NCI-H460 lung): 5.22 µM and 13 µM
GI50 (A549 NSCLC): 1.13 µM
TGI (A549 NSCLC): 10.3 µM and 22.9 µM
GI50 (SW-620 colon): 11 µM
TGI (SW-620 colon): 50 µM and > 100 µM

NC(=S)N/N=C/c1ncccc1O
GI50 (HOP-92 NSCLC): 6.55 µM
TGI (HOP-92 NSCLC): 31.2 µM and 90.7 µM
TGI (UACC-257 melanoma): 8.97 µM and 72.7 µM
TGI (MDA-MB-231 breast): > 1000 µM
GI50 (SF-295 CNS): 2.47 µM
TGI (SF-295 CNS): 27.1 µM and 3.94 µM
TGI (HS 578T breast): 835 µM
GI50 (BT-549 breast): 1.58 µM
TGI (BT-549 breast): > 1000 µM
GI50 (CAKI-1 renal): 2.59 µM
TGI (CAKI-1 renal): > 56.7 µM and 63.9 µM
GI50 (NCI-H460 lung): 3.17 µM
TGI (NCI-H460 lung): 48.5 µM and 25.2 µM
GI50 (A549 NSCLC): 3.39 µM
TGI (A549 NSCLC): > 59.4 µM and 31.3 µM
GI50 (SW-620 colon): 3.3 µM
TGI (SW-620 colon): > 839 µM

COc1ccc(CNc2c3ccccc3nc3ccccc23)cc1F
GI50 (HOP-92 NSCLC): 1.96 µM
TGI (HOP-92 NSCLC): 7.61 µM
GI50 (UACC-257 melanoma): 3.98 µM
TGI (UACC-257 melanoma): 16.7 µM
GI50 (MDA-MB-231 breast): 3.16 µM
TGI (MDA-MB-231 breast): 10.7 µM
GI50 (SF-295 CNS): 2.68 µM
TGI (SF-295 CNS): 10.4 µM
GI50 (HS 578T breast): 3.06 µM
TGI (HS 578T breast): 11.5 µM
GI50 (BT-549 breast): 4.88 µM
TGI (BT-549 breast): 18.3 µM
GI50 (CAKI-1 renal): 2.26 µM
TGI (CAKI-1 renal): 8.35 µM
GI50 (NCI-H460 lung): 3.15 µM
TGI (NCI-H460 lung): 10.4 µM
GI50 (A549 NSCLC): 3.55 µM
TGI (A549 NSCLC): 18 µM
GI50 (SW-620 colon): 2.51 µM
TGI (SW-620 colon): 10.5 µM

CCN(CCNS(C)(=O)=O)c1ccc(N)c(C)c1
GI50 (HOP-92 NSCLC): 4.13 µM
TGI (HOP-92 NSCLC): 16.3 µM
GI50 (UACC-257 melanoma): 13.4 µM
TGI (UACC-257 melanoma): 27.1 µM
GI50 (MDA-MB-231 breast): 11.8 µM
TGI (MDA-MB-231 breast): 25.4 µM
GI50 (SF-295 CNS): 16.7 µM
TGI (SF-295 CNS): 34.3 µM
GI50 (HS 578T breast): 32.9 µM
TGI (HS 578T breast): > 100 µM
GI50 (BT-549 breast): 10.1 µM
TGI (BT-549 breast): 22.2 µM
GI50 (CAKI-1 renal): 2.54 µM
TGI (CAKI-1 renal): 6.78 µM
GI50 (NCI-H460 lung): 23.2 µM
TGI (NCI-H460 lung): 53.7 µM
GI50 (A549 NSCLC): 25 µM
TGI (A549 NSCLC): 51 µM
GI50 (SW-620 colon): 2.25 µM
TGI (SW-620 colon): 5.31 µM

COc1ccc2c(=O)oc3c(OC)cc(CCN(C)C)c4c(=O)oc1c2c34
GI50 (HOP-92 NSCLC): 21.5 µM and 8.25 µM
TGI (HOP-92 NSCLC): 39.6 µM and 15.2 µM
GI50 (UACC-257 melanoma): 19.7 µM and 3.31 µM
TGI (UACC-257 melanoma): 38.7 µM and 10.3 µM
TGI (MDA-MB-231 breast): 16.1 µM
GI50 (SF-295 CNS): 15 µM and 6.99 µM
TGI (SF-295 CNS): 28.5 µM and 14.3 µM
TGI (HS 578T breast): 24 µM
TGI (BT-549 breast): 15.4 µM
GI50 (CAKI-1 renal): 17.3 µM and 8.46 µM
TGI (CAKI-1 renal): 31.6 µM and 15.4 µM
GI50 (NCI-H460 lung): 13.8 µM and 2.4 µM
TGI (NCI-H460 lung): 29.9 µM and 9.03 µM
GI50 (A549 NSCLC): 21.3 µM and 8.46 µM
TGI (A549 NSCLC): 37 µM and 20.2 µM
GI50 (SW-620 colon): 14 µM and 5.86 µM
TGI (SW-620 colon): 28.1 µM and 17.4 µM

Cc1cc(C(=O)CSC(=S)SC(C)(C)C)ccc1Cl
TGI (HOP-92 NSCLC): 70.3 µM
TGI (UACC-257 melanoma): 34.4 µM
TGI (MDA-MB-231 breast): 36.4 µM
TGI (SF-295 CNS): 37.1 µM
TGI (HS 578T breast): 82.3 µM
TGI (BT-549 breast): 53.1 µM
TGI (CAKI-1 renal): > 100 µM
TGI (NCI-H460 lung): 28.3 µM
TGI (A549 NSCLC): 50 µM
TGI (SW-620 colon): 68.3 µM

CCN(Cc1c(F)cccc1OC)c1ccc(CO)c(Cl)c1
GI50 (HOP-92 NSCLC): 0.933 µM
TGI (HOP-92 NSCLC): 10 µM
GI50 (UACC-257 melanoma): 0.0523 µM
TGI (UACC-257 melanoma): 0.226 µM
GI50 (MDA-MB-231 breast): 14.5 µM
TGI (MDA-MB-231 breast): 40.9 µM
GI50 (SF-295 CNS): 0.0707 µM
TGI (SF-295 CNS): 1.88 µM
GI50 (HS 578T breast): 19.1 µM
TGI (HS 578T breast): 53.4 µM
GI50 (BT-549 breast): 17.6 µM
TGI (BT-549 breast): 36.9 µM
GI50 (CAKI-1 renal): 3.05 µM
TGI (CAKI-1 renal): 35.5 µM
GI50 (NCI-H460 lung): 0.201 µM
TGI (NCI-H460 lung): 11.7 µM
GI50 (A549 NSCLC): 2.35 µM
TGI (A549 NSCLC): 23.1 µM
GI50 (SW-620 colon): 0.714 µM
TGI (SW-620 colon): > 77 µM

COC(=O)/C=C/c1cc(OC(C)=O)c2c(c1)C(C(=O)OC)C(c1ccc(OC(C)=O)c(OC(C)=O)c1)O2 (configuration not stated)
GI50 (HOP-92 NSCLC): 0.35 µM
TGI (HOP-92 NSCLC): 24.8 µM
GI50 (UACC-257 melanoma): 13.7 µM
TGI (UACC-257 melanoma): > 77.6 µM
GI50 (MDA-MB-231 breast): 0.442 µM
TGI (MDA-MB-231 breast): > 21.3 µM
GI50 (SF-295 CNS): 0.222 µM
TGI (SF-295 CNS): 14.1 µM
GI50 (HS 578T breast): 0.0521 µM
TGI (HS 578T breast): 68.2 µM
GI50 (BT-549 breast): 0.127 µM
TGI (BT-549 breast): 2.27 µM
GI50 (CAKI-1 renal): 0.278 µM
TGI (CAKI-1 renal): 94 µM
GI50 (NCI-H460 lung): 1.03 µM
TGI (NCI-H460 lung): 13.6 µM
GI50 (A549 NSCLC): 1.35 µM
TGI (A549 NSCLC): > 56.7 µM
GI50 (SW-620 colon): 0.0468 µM
TGI (SW-620 colon): > 100 µM

COc1ccc(-c2c(C#N)c(N3CCOCC3)nc3[nH]c(=S)[nH]c(=S)c23)cc1OC
GI50 (HOP-92 NSCLC): 48.2 µM
TGI (HOP-92 NSCLC): > 100 µM
GI50 (UACC-257 melanoma): > 100 µM
TGI (UACC-257 melanoma): > 100 µM
GI50 (MDA-MB-231 breast): 13.9 µM
TGI (MDA-MB-231 breast): 77.1 µM
GI50 (SF-295 CNS): 40.1 µM
TGI (SF-295 CNS): > 100 µM
GI50 (HS 578T breast): 47.3 µM
TGI (HS 578T breast): > 100 µM
GI50 (BT-549 breast): 32.2 µM
TGI (BT-549 breast): > 100 µM
GI50 (CAKI-1 renal): 30.7 µM
TGI (CAKI-1 renal): 87.3 µM
GI50 (NCI-H460 lung): 27.7 µM
TGI (NCI-H460 lung): > 100 µM
GI50 (A549 NSCLC): > 100 µM
TGI (A549 NSCLC): > 100 µM
GI50 (SW-620 colon): 49.1 µM
TGI (SW-620 colon): > 100 µM

COc1c(C)c(OCC=C(C)C)cc(CO)c1CO
TGI (HOP-92 NSCLC): > 100 µM
TGI (UACC-257 melanoma): > 100 µM
TGI (MDA-MB-231 breast): > 100 µM
TGI (SF-295 CNS): > 100 µM
TGI (HS 578T breast): > 100 µM
TGI (BT-549 breast): > 100 µM
TGI (CAKI-1 renal): > 100 µM
TGI (NCI-H460 lung): > 100 µM
TGI (A549 NSCLC): > 100 µM
TGI (SW-620 colon): > 100 µM

COc1ccc(-c2cc(=O)oc3c4c(ccc23)OCN(Cc2ccc(F)cc2)C4)cc1
GI50 (HOP-92 NSCLC): 10 µM
TGI (HOP-92 NSCLC): 24.2 µM
GI50 (UACC-257 melanoma): 14.9 µM
TGI (UACC-257 melanoma): 29.9 µM
GI50 (MDA-MB-231 breast): 18.5 µM
TGI (MDA-MB-231 breast): 40.2 µM
GI50 (SF-295 CNS): 15 µM
TGI (SF-295 CNS): 30 µM
GI50 (HS 578T breast): 15.8 µM
TGI (HS 578T breast): 47.9 µM
GI50 (BT-549 breast): 14.6 µM
TGI (BT-549 breast): 31.3 µM
GI50 (CAKI-1 renal): 14.7 µM
TGI (CAKI-1 renal): 44.3 µM
GI50 (NCI-H460 lung): 15.9 µM
TGI (NCI-H460 lung): 30.2 µM
GI50 (A549 NSCLC): 25.6 µM
TGI (A549 NSCLC): > 100 µM
GI50 (SW-620 colon): 16.3 µM
TGI (SW-620 colon): 31.8 µM
